Results reported in ChEMBL document CHEMBL4699440, “Comprehensive review on the anti-bacterial activity of 1,2,3-triazole hybrids” (Eur J Med Chem, 2019).
In brackets after ≈: the same amount, converted by molar mass.

Legend:
KB = assay: Cytotoxicity against human KB cells; assay type: cell-based; details: Homo sapiens, KB
Staphylococcus aureus = assay: Antibacterial activity against Staphylococcus aureus; assay type: functional
Bacillus cereus = assay: Antibacterial activity against Bacillus cereus; assay type: functional

SMILES	MIC (Staphylococcus aureus) [µg/mL]	MIC (Bacillus cereus) [µg/mL]	IC50 (KB) [µg/mL]
CC(C)C[C@H](NC(=O)CNC(=O)C(C)(C)NC(=O)[C@@H](NC(=O)C(C)(C)NC(=O)[C@H](CCC(N)=O)NC(=O)[C@H](C)NC(=O)C(C)(C)NC(=O)[C@H](C)NC(=O)C(C)(C)NC(=O)[C@@H]1CCN(C(=O)C(C)(C)n2cc(-c3ccc(F)cc3F)nn2)C1)C(C)C)C(=O)NC(C)(C)C(=O)N1CCC[C@@H]1C(=O)N[C@H](C(=O)NC(C)(C)C(=O)NC(C)(C)C(=O)N[C@@H](CCC(N)=O)C(=O)N[C@@H](CCC(N)=O)C(=O)N[C@H](CO)Cc1ccccc1)C(C)C	1.56 (≈ 0.748 µM)	1.56 (≈ 0.748 µM)	2.9 (≈ 1.39 µM)
CC(C)C[C@H](NC(=O)CNC(=O)C(C)(C)NC(=O)[C@@H](NC(=O)C(C)(C)NC(=O)[C@H](CCC(N)=O)NC(=O)[C@H](C)NC(=O)C(C)(C)NC(=O)[C@H](C)NC(=O)C(C)(C)NC(=O)[C@@H]1CCN(C(=O)C(C)(C)n2cc(-c3ccccc3)nn2)C1)C(C)C)C(=O)NC(C)(C)C(=O)N1CCC[C@@H]1C(=O)N[C@H](C(=O)NC(C)(C)C(=O)NC(C)(C)C(=O)N[C@@H](CCC(N)=O)C(=O)N[C@@H](CCC(N)=O)C(=O)N[C@H](CO)Cc1ccccc1)C(C)C	1.56 (≈ 0.761 µM)	1.56 (≈ 0.761 µM)	2.9 (≈ 1.42 µM)
CC(C)C[C@H](NC(=O)CNC(=O)C(C)(C)NC(=O)[C@@H](NC(=O)C(C)(C)NC(=O)[C@H](CCC(N)=O)NC(=O)[C@H](C)NC(=O)C(C)(C)NC(=O)[C@H](C)NC(=O)C(C)(C)NC(=O)[C@@H]1CCN(C(=O)C(C)(C)n2cc(-c3ccc(-c4ccccc4)cc3)nn2)C1)C(C)C)C(=O)NC(C)(C)C(=O)N1CCC[C@@H]1C(=O)N[C@H](C(=O)NC(C)(C)C(=O)NC(C)(C)C(=O)N[C@@H](CCC(N)=O)C(=O)N[C@@H](CCC(N)=O)C(=O)N[C@H](CO)Cc1ccccc1)C(C)C	1.56 (≈ 0.734 µM)	1.56 (≈ 0.734 µM)	2.9 (≈ 1.36 µM)
CC(C)C[C@H](NC(=O)CNC(=O)C(C)(C)NC(=O)[C@@H](NC(=O)C(C)(C)NC(=O)[C@H](CCC(N)=O)NC(=O)[C@H](C)NC(=O)C(C)(C)NC(=O)[C@H](C)NC(=O)C(C)(C)NC(=O)[C@@H]1CCN(C(=O)C(C)(C)n2cc(-c3cc4ccccc4c4ccccc34)nn2)C1)C(C)C)C(=O)NC(C)(C)C(=O)N1CCC[C@@H]1C(=O)N[C@H](C(=O)NC(C)(C)C(=O)NC(C)(C)C(=O)N[C@@H](CCC(N)=O)C(=O)N[C@@H](CCC(N)=O)C(=O)N[C@H](CO)Cc1ccccc1)C(C)C	1.56 (≈ 0.726 µM)	1.56 (≈ 0.726 µM)	2.9 (≈ 1.35 µM)

Continued, in another order:

MIC (Staphylococcus aureus) [µg/mL]	MIC (Bacillus cereus) [µg/mL]	SMILES	IC50 (KB) [µg/mL]
1.56 (≈ 0.737 µM)	1.56 (≈ 0.737 µM)	CC(C)C[C@H](NC(=O)CNC(=O)C(C)(C)NC(=O)[C@@H](NC(=O)C(C)(C)NC(=O)[C@H](CCC(N)=O)NC(=O)[C@H](C)NC(=O)C(C)(C)NC(=O)[C@H](C)NC(=O)C(C)(C)NC(=O)[C@@H]1CCN(C(=O)C(C)(C)n2cc(-c3ccccc3C(F)(F)F)nn2)C1)C(C)C)C(=O)NC(C)(C)C(=O)N1CCC[C@@H]1C(=O)N[C@H](C(=O)NC(C)(C)C(=O)NC(C)(C)C(=O)N[C@@H](CCC(N)=O)C(=O)N[C@@H](CCC(N)=O)C(=O)N[C@H](CO)Cc1ccccc1)C(C)C	2.9 (≈ 1.37 µM)
12.5 (≈ 5.9 µM)	12.5 (≈ 5.9 µM)	CC(C)C[C@H](NC(=O)CNC(=O)C(C)(C)NC(=O)[C@@H](NC(=O)C(C)(C)NC(=O)[C@H](CCC(N)=O)NC(=O)[C@H](C)NC(=O)C(C)(C)NC(=O)[C@H](C)NC(=O)C(C)(C)NC(=O)[C@@H]1CCN(C(=O)C(C)(C)n2cc(-c3ccc(C(F)(F)F)cc3)nn2)C1)C(C)C)C(=O)NC(C)(C)C(=O)N1CCC[C@@H]1C(=O)N[C@H](C(=O)NC(C)(C)C(=O)NC(C)(C)C(=O)N[C@@H](CCC(N)=O)C(=O)N[C@@H](CCC(N)=O)C(=O)N[C@H](CO)Cc1ccccc1)C(C)C	2.9 (≈ 1.37 µM)
1.56 (≈ 0.748 µM)	1.56 (≈ 0.748 µM)	CC(C)C[C@H](NC(=O)CNC(=O)C(C)(C)NC(=O)[C@@H](NC(=O)C(C)(C)NC(=O)[C@H](CCC(N)=O)NC(=O)[C@H](C)NC(=O)C(C)(C)NC(=O)[C@H](C)NC(=O)C(C)(C)NC(=O)[C@@H]1CCN(C(=O)C(C)(C)n2cc(-c3ccc(F)c(F)c3)nn2)C1)C(C)C)C(=O)NC(C)(C)C(=O)N1CCC[C@@H]1C(=O)N[C@H](C(=O)NC(C)(C)C(=O)NC(C)(C)C(=O)N[C@@H](CCC(N)=O)C(=O)N[C@@H](CCC(N)=O)C(=O)N[C@H](CO)Cc1ccccc1)C(C)C	2.9 (≈ 1.39 µM)
